Experimental data: patent publication US9439904B2, “Pyrimidine compounds and their use as gamma secretase modulators” (Acturum Life Science AB, priority 2013, dated 2016)

Assays:
Aβ42 [1] = test: HEK assay: Aβ42 secreted to cell medium, Meso Scale Discovery electrochemiluminescence; type: cell-based; conditions: Homo sapiens, HEK293; HEK cell line stably expressing APPswe; 4-6 hours incubation with test compound; read-out: pIC50 Aβ42 HEK assay (converted)
Procedure: Compounds were diluted in 100% DMSO and stored at […] prior to use. Human Embryonic Kidney (HEK) cell line stably expressing APP with the Swedish mutation (APPswe) was cultured using Dulbecco's Modified Eagles medium (DMEM) supplied with […] glucose, Na-pyruvate and GlutaMAX, 10% Foetal bovine serum, 100 U/mL penicillin-streptomycin (PEST), 1× non-essential amino acids (NEAA), […] Hepes, 100 μg/mL Zeocine. Cells at about 80% confluence were washed with PBS, detached from culture flasks using 1× Trypsin/EDTA diluted in PBS, re-suspended in cell media and plated in 384-well poly-d-lysine coated cell culture plates at about 10000-15000 cells/well, in 25 μL cell media. Optionally, cryo-preserved cells (frozen and stored at −140° C. in 90% cell media and 10% DMSO) were thawed, washed and plated as above. Next the cells were incubated for 15-24 h at 37° C. and 5% CO2, after which cell medium was changed. Fresh medium containing test compound diluted ×200 from prepared compound plate was added to the cells before further incubation for 4-6 hours at 37° C. and 5% CO2. After incubation with test compound the amount of Aβ peptides, including Aβ42, Aβ40, Aβ39, Aβ38 and Aβ37, secreted to cell medium was analyzed using the electrochemiluminescence assay technology from Meso Scale Discovery Technology, in combination with specific antibodies raised against the different Aβ peptides. Potential cytotoxic effects of the compounds were assayed by measuring the ATP content (ViaLight) from cell lysate.

Aβ42 [2] = test: PCN assay: Aβ42 secreted by primary cortical neuronal cells, ELISA; type: cell-based; conditions: primary cortical neuronal cells from 16-day mouse embryos; 16-20 hours incubation with test compound; read-out: pIC50 Aβ42 PCN assay (converted)
Procedure: Compounds were diluted in 100% DMSO and stored at […] prior to use. Primary cortical neuronal cells (PCN) were isolated from 16-day mouse embryos and cultured in Ham's F12 media containing 10% Foetal bovine serum, 10 mM Hepes, 2 mM L-glutamine and 100 U/mL Penicillin-Streptomycin. 150000-250000 cells/well, in 200 μL cell media were seeded onto 96-well poly-D-Lysine coated plates. After incubation at 37° C., 5% CO2 for five days, the media was exchanged for fresh medium containing test compound diluted ×100, before further incubation for 16-20 hours at 37° C. and 5% CO2. After incubation with test compound the amount of […] secreted to cell medium was analyzed using the solid phase sandwich Enzyme-Linked-Immuno-Sorbent Assay (ELISA)-kit from Invitrogen for detection of mouse βAmyloid 1-42. Potential cytotoxic effects of the compounds were assayed by measuring the ATP content (Via Light) from cell lysate.

Structure (SMILES) | IC50 (Aβ42 [1]) | IC50 (Aβ42 [2])
COc1cc(Nc2nc(COCC3CC3)cc(N3CCC3)n2)ccc1-n1cnc(C)c1 [Example 1, 4-(Azetidin-1-yl)-6-((cyclopropylmethoxy)methyl)-N-(3-methoxy-4-(4-methyl-1H-imidazol-1-yl)phenyl)pyrimidin-2-amine] | 20 nM | 50.1 nM
CNc1cc(COCC(F)(F)F)nc(Nc2ccc(-n3cnc(C)c3)cc2)n1 [Example 2, N^4-Methyl-N^2-(4-(4-methyl-1H-imidazol-1-yl)phenyl)-6-((2,2,2-trifluoroethoxy)methyl)-pyrimidine-2,4-diamine] | 31.6 nM | 63.1 nM
COc1cc(Nc2nc(CC#N)cc(COCC(F)(F)F)n2)ccc1-n1cnc(C)c1 [Example 3, 2-[2-[3-Methoxy-4-(4-methylimidazol-1-yl)anilino]-6-(2,2,2-trifluoroethoxymethyl)pyrimidin-4-yl]acetonitrile] | 25.1 nM | 39.8 nM
CNc1nc(Nc2ccc(-n3cnc(C)c3)c(OC)c2)nc(COCC(F)(F)F)c1C [Example 4, N^2-(3-Methoxy-4-(4-methyl-1H-imidazol-1-yl)phenyl)-N^4,5-dimethyl-6-((2,2,2-trifluoroethoxy)methyl)pyrimidine-2,4-diamine] | 25.1 nM | 10 nM
COc1cc(Nc2nc(COCC(F)(F)F)c(C)c(C(C)(C)O)n2)ccc1-n1cnc(C)c1 [Example 5, 2-(2-(3-Methoxy-4-(4-methyl-1H-imidazol-1-yl)phenylamino)-5-methyl-6-((2,2,2-trifluoroethoxy)methyl)pyrimidin-4-yl)propan-2-ol] | 20 nM | 20 nM
COc1cc(Nc2nc(COCC(F)(F)F)c(C)c(C(C)O)n2)ccc1-n1cnc(C)c1 (centres unmarked) [Example 6, 1-(2-(3-Methoxy-4-(4-methyl-1H-imidazol-1-yl)phenylamino)-5-methyl-6-((2,2,2-trifluoroethoxy)methyl)pyrimidin-4-yl)ethanol] | 31.6 nM | 31.6 nM
COc1cc(Nc2nc(C(C)O)cc(C(C)OCC(F)(F)F)n2)ccc1-n1cnc(C)c1 (centres unmarked) [Example 7, 1-(2-(3-Methoxy-4-(4-methyl-1H-imidazol-1-yl)phenylamino)-6-(1-(2,2,2-trifluoroethoxy)-ethyl)pyrimidin-4-yl)ethanol] | 31.6 nM | 31.6 nM
COc1cc(Nc2nc(COCC(F)(F)F)cc(NC(C)C)n2)ccc1-n1cnc(C)c1 [Example 8, N^4-Isopropyl-N^2-(3-methoxy-4-(4-methyl-1H-imidazol-1-yl)phenyl)-6-((2,2,2-trifluoroethoxy)methyl)pyrimidine-2,4-diamine] | 31.6 nM | 20 nM
CNc1cc(COCC(F)(F)F)nc(Nc2ccc(-n3cnc(C)c3)c(OC)c2)n1 [Example 9, N^2-(3-Methoxy-4-(4-methyl-1H-imidazol-1-yl)phenyl)-N4-methyl-6-((2,2,2-trifluoroethoxy)methyl)pyrimidine-2,4-diamine] | 25.1 nM | 31.6 nM
COc1cc(Nc2nc(CO)cc(COCC(F)(F)F)n2)ccc1-n1cnc(C)c1 [Example 10, (2-(3-Methoxy-4-(4-methyl-1H-imidazol-1-yl)phenylamino)-6-((2,2,2-trifluoroethoxy)methyl)pyrimidin-4-yl)methanol] | 63.1 nM | 31.6 nM
COc1cc(Nc2nc(C(C)OCC(F)(F)F)cc(C(C)(C)O)n2)ccc1-n1cnc(C)c1 (centres unmarked) [Example 11, 2-(2-(3-Methoxy-4-(4-methyl-1H-imidazol-1-yl)phenylamino)-6-(1-(2,2,2-trifluoroethoxy)ethyl)pyrimidin-4-yl)propan-2-ol] | 25.1 nM | 50.1 nM
COc1cc(Nc2nc(COCC(F)(F)F)cc(C(O)C(F)(F)F)n2)ccc1-n1cnc(C)c1 (centres unmarked) [Example 12, 2,2,2-Trifluoro-1-(2-(3-methoxy-4-(4-methyl-1H-imidazol-1-yl)phenylamino)-6-((2,2,2-trifluoroethoxy)methyl)pyrimidin-4-yl)ethanol] | 79.4 nM | 39.8 nM
COc1cc(Nc2nc(COCC(F)(F)F)cc(C(O)CC3CC3)n2)ccc1-n1cnc(C)c1 (centres unmarked) [Example 13, 2-Cyclopropyl-1-(2-(3-methoxy-4-(4-methyl-1H-imidazol-1-yl)phenylamino)-6-((2,2,2-trifluoroethoxy)methyl)pyrimidin-4-yl)ethanol] | 20 nM | 50.1 nM
COc1cc(Nc2nc(COCC(F)(F)F)cc(C(O)C(C)C)n2)ccc1-n1cnc(C)c1 (centres unmarked) [Example 14, 1-(2-(3-Methoxy-4-(4-methyl-1H-imidazol-1-yl)phenylamino)-6-((2,2,2-trifluoroethoxy)methyl)pyrimidin-4-yl)-2-methylpropan-1-ol] | – | 39.8 nM
COc1cc(Nc2nc(COCC(F)(F)F)cc(C(C)(C)O)n2)ccc1-n1cnc(C)c1 [Example 15, 2-(2-(3-Methoxy-4-(4-methyl-1H-imidazol-1-yl)phenylamino)-6-((2,2,2-trifluoroethoxy)-methyl)pyrimidin-4-yl)propan-2-ol] | 31.6 nM | 50.1 nM
COc1cc(Nc2nc(COCC3CC3)cc(COCC(F)(F)F)n2)ccc1-n1cnc(C)c1 [Example 16, 4-((Cyclopropylmethoxy)methyl)-N-(3-methoxy-4-(4-methyl-1H-imidazol-1-yl)phenyl)-6-((2,2,2-trifluoroethoxy)methyl)pyrimidin-2-amine] | 50.1 nM | 79.4 nM
COc1cc(Nc2nc(COCC3CC(F)(F)C3)cc(C(C)(C)O)n2)ccc1-n1cnc(C)c1 [Example 17, 2-(6-(((3,3-Difluorocyclobutyl)methoxy)methyl)-2-(3-methoxy-4-(4-methyl-1H-imidazol-1-yl)phenylamino)pyrimidin-4-yl)propan-2-ol] | 200 nM | 200 nM
COc1cc(Nc2nc(COCCC(F)(F)F)cc(C(C)(C)O)n2)ccc1-n1cnc(C)c1 [Example 18, 2-(2-(3-Methoxy-4-(4-methyl-1H-imidazol-1-yl)phenylamino)-6-((3,3,3-trifluoropropoxy)-methyl)pyrimidin-4-yl)propan-2-ol] | 63.1 nM | 100 nM
COc1cc(Nc2nc(COCC3CC(F)(F)C3)cc(C(C)(C)O)n2)ccc1-c1cnnc(C)c1 [Example 19, 2-(6-(((3,3-Difluorocyclobutyl)methoxy)methyl)-2-(3-methoxy-4-(6-methylpyridazin-4-yl)phenylamino)pyrimidin-4-yl)propan-2-ol] | 200 nM | –
COc1cc(Nc2nc(COCC(F)(F)F)cc(N3CCC3)n2)ccc1-n1cnc(C)c1 [Example 20, 4-(Azetidin-1-yl)-N-(3-methoxy-4-(4-methyl-1H-imidazol-1-yl)phenyl)-6-((2,2,2-trifluoroethoxy)methyl)pyrimidin-2-amine] | 39.8 nM | 100 nM
COc1cc(Nc2nc(COCC(F)(F)F)cc(N3CCC3)n2)ccc1-c1cnnc(C)c1 [Example 21, 4-(Azetidin-1-yl)-N-(3-methoxy-4-(6-methylpyridazin-4-yl)phenyl)-6-((2,2,2-trifluoroethoxy)methyl)pyrimidin-2-amine] | 126 nM | 50.1 nM
COc1cc(Nc2nc(COCC(F)(F)F)cc(N3CCC(F)(F)CC3)n2)ccc1-c1cnnc(C)c1 [Example 22, 4-(4,4-Difluoropiperidin-1-yl)-N-(3-methoxy-4-(6-methylpyridazin-4-yl)phenyl)-6-((2,2,2-trifluoroethoxy)methyl)pyrimidin-2-amine] | 79.4 nM | 63.1 nM
COc1cc(Nc2nc(COCC(F)(F)F)cc(NC(C)C)n2)ccc1-c1cnnc(C)c1 [Example 23, N^4-Isopropyl-N^2-(3-methoxy-4-(6-methylpyridazin-4-yl)phenyl)-6-((2,2,2-trifluoroethoxy)-methyl)pyrimidine-2,4-diamine] | 79.4 nM | 79.4 nM
CNc1cc(COCC(F)(F)F)nc(Nc2ccc(-c3cnnc(C)c3)c(OC)c2)n1 [Example 24, N^2-(3-Methoxy-4-(6-methylpyridazin-4-yl)phenyl)-N^4-methyl-6-((2,2,2-trifluoroethoxy)-methyl)pyrimidine-2,4-diamine] | 100 nM | 79.4 nM
COc1cc(Nc2nc(COCC(F)(F)F)cc(CN(C)C)n2)ccc1-n1cnc(C)c1 [Example 41, 4-((Dimethylamino)methyl)-N-(3-methoxy-4-(4-methyl-1H-imidazol-1-yl)phenyl)-6-((2,2,2-trifluoroethoxy)methyl)pyrimidin-2-amine] | 158 nM | –
